Test results taken from US20130345306A1, “IDENTIFICATION OF C3 COMPLEMENT MOLECULE AT THE SITE OF INJURY TO BLOOD VESSELS IN THE RETINA OF OXYGEN EXPOSED ANIMALS” (priority 2011, published 2013).
Entries after “also recorded” stand apart in the source; their conditions may differ.

Assays:
[1] = system: murine oxygen-induced retinopathy (OIR); assay: Murine oxygen-induced retinopathy (OIR), SB290157 injected intraperitoneally on DOL 5, retinal vasculature pattern on DOL 17; type: in vivo; conditions: 1 mg/kg i.p. DOL 5
Procedure: litters of new born mice were divided into 4 groups. On Day of Life (DOL) 5, SB290157 1 mg per kilogram body weight is injected intraperitoneally into mice in Group 1 and Group 3; same volume solvent without SB290157 is injected intraperitoneally into mice in Group 2 and Group 4. Mice from group 1 and 2 are raised in room air all the time, but mice from group 3 and 4 are raised in room air till DOL 7 when they are transfer into 75% oxygen chamber and on DOL 12 they are returned into room air. On DOL 17, eyes are enucleated and retinas dissected after euthanasia. Retinas are then stained with Alexa Fluor 488 conjugated isolectin GS-IB4 and mounted on slide for vasculature pattern study.

[2] = system: airway neutrophilia; conditions: in vivo; cited from earlier work
[3] = target: human C3aR (Homo sapiens, UniProt Q16581); conditions: cited from earlier work
Chain of human C3aR (Q16581 whole entry): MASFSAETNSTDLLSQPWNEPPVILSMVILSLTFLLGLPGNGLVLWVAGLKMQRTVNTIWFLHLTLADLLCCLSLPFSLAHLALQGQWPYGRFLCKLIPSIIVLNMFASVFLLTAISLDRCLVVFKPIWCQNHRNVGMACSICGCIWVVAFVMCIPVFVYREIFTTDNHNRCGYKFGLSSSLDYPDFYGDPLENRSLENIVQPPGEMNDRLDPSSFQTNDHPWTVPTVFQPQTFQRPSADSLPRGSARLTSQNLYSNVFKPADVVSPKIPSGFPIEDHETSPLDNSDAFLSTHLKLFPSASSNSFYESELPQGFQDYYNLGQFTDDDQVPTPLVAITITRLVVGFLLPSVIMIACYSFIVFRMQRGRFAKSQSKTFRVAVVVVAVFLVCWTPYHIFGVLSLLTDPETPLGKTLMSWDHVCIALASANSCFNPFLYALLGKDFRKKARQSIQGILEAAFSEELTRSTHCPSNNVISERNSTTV

[4] = system: rodent C3aR; conditions: cited from earlier work
[5] = system: new born mice; assay: Murine OIR trial with progressively increased SB290157 dosage, observation for untoward reactions or side effects; type: in vivo, mouse; conditions: i.p. DOL 5; dosage increased from 2.5 to 5, 7.5, 10, 15, 25, 50 mgm/kg; 75% O2 DOL 7-12
Procedure: Standard O2 exposure 75% DOL 7-12; 3) Euthanasia at DOL17, followed by enucleation, removal of the retina and separation from the retina from underlying Pigment Epithelial layer. Flatmount and stain for vessels with IsoLectin was performed by incubating the preparation with goat AB followed by counter-staining with Rhodamine to bring out the presence of active C3a; 4)Microscopy at 2.5× and 40× for: capillary bed anatomy; presence of “ghost vessels” previously described; presence of cellular debris noted previously thought to be pieces of partially destroyed but not digested cell wall; destruction or absence of neurons and glial in the retina surrounding the Optic Nerve Head(from which major blood vessels exit undamaged at least as can be detected by the oxygen exposure); presence or absence of neovascular tufts (a late complication of oxygen damage). An additional trial with Intravitreal Injection will be performed as this paper is prepared.
MATERIALS & METHOD: Litters of black 6 new born mice were divided in half at birth. At DOL seven, one half of the litter were placed in an oxygen chamber maintained at 75%+/−2% oxygen till DOL 12. The oxygen exposed mice were maintained in room air until DOL 17. The control mice were raised in room air until DOL 17 when both halves were euthanized at DOL17. Eyes were enucleated and fixed in 4% paraformaldehyde at 4° C. overnight. […]

[6] = system: murine oxygen-induced retinopathy (OIR); assay: Murine OIR, SB290157 intraperitoneal just prior to 75% oxygen, preservation of capillary bed; type: in vivo, mouse; conditions: 2-5 mg/kg i.p. just prior to 75% oxygen DOL 7-12; vs sham saline injected oxygen-exposed litter mates
Procedure: Murine Model of Oxygen-Induced Retinopathy (OIR): In this regard we reported the role of active C3a in the OIR (15). C57BL/6J mice were obtained from Jackson Laboratories. After birth the litter of mice were nursed by their dam in a room air environment from day of life (DOL) 0 to DOL 6. On DOL 7 the litter were separated in half. One half were placed with their nursing dam in a custom made incubator from DOL 7 through DOL 12 ([…]) with the oxygen concentration maintained at 75% measured twice daily. The other half of the litter were raised in room air as controls. Dams were replaced every 24 hours in the incubator. […]
After a rinse, the retinas were permeabilized with 0.1% Triton X100 and stained with Alexa Fluor 488-conjugated isolectin GS-IB4, followed by blocking with 5% donkey serum. […] Images were obtained digitally with a fluorescence microscope and a digital camera. […]
For a given control half litter the areal extent of total destruction can be estimated, in a non-limiting example from the area extending from optic nerve to mid periphery of the retina. For the SB290157 treated animals the measured area of destruction can be estimated, in a non-limiting example from the area extending from optic nerve to mid periphery of the retina. […] The results of this experiment are measured in prevention of capillary loss. […]

[7] = 75% oxygen DOL 7-12, DOL 17, vs solvent-injected oxygen-exposed group 4

With `NC(N)=NCCC[C@H](NC(=O)COCC(c1ccccc1)c1ccccc1)C(=O)O` [SB290157] as the molecule, how does the “effect on murine OIR (conclusion)” value ([1]; 75% oxygen DOL 7-12) read?
The value was “can attenuate murine OIR”.

What about the “capillary damage in retinal whole mounts” value [1, 7] of the same molecule?
Its value is “attenuated the damage to the capillary bed; also recorded: significantly less capillary damage”.

What about the neovascularization tufts [1, 7] of the same molecule?
The neovascularization tufts was “few to no vascular tufts; also recorded: less neovascularization tufts”.

What about the “retinal vasculature / toxicity to forming vascular tissue in room air raised mice” value ([1]; room air, DOL 17, vs solvent group 2) of the same molecule?
Its value is “No evidence of toxicity to forming vascular tissue; also recorded: normal developing vasculature patterns without significant difference”.

What about the “effect in airway neutrophilia” value [2] of the same molecule?
Its value is “beneficial effects”.

What about the C3a receptor blockade [3] of the same molecule?
The C3a receptor blockade was “blocking”.

And the C3a receptor blockade [4]?
The C3a receptor blockade was “blocking”.

What about the “untoward reactions or side effects” value [5] of the same molecule?
The value was “None were observed”.

And the “preservation of capillary bed” value [6]?
Its value is “prevents the destruction of capillary bed; also recorded: preservation of capillary bed”.
